For 13 compounds, melting point results are on record in patent US7244738B2, “Arylamine-substituted quinazolinone compounds useful as alpha 1A/B adrenergic receptor antagonists” (Roche Palo Alto LLC, priority 2003, dated 2007).

Structures can show the parent of a compound that is named as a salt.

One may read the melting point as the temperature, or range, at which the solid turns liquid. Take `COC(=O)N(C)c1cccc(CN(C)c2nc(=O)c3c(C)c(OC)c(OC)cc3[nH]2)c1` [Example 178, (3-{[(6,7-Dimethoxy-5-methyl-4-oxo-1,4-dihydro-quinazolin-2-yl)-methyl-amino]-methyl}-phenyl)-methyl-carbamic acid methyl ester]: the melting point fell in the range of 191.9 to 194.1 °C.
Turning to `COc1cc2[nH]c(N(C)Cc3cccc(N4C(=O)CC(C)C4=O)c3)nc(=O)c2c(C)c1OC` (stereo not shown) [Example 65, 1-(3-{[(6,7-Dimethoxy-5-methyl-4-oxo-1,4-dihydro-quinazolin-2-yl)-methyl-amino]-methyl}-phenyl)-3-methyl-pyrrolidine-2,5-dione], the melting point is 217.8 to 219.2 °C.
For the compound `COc1cc2[nH]c(N(C)Cc3cccc(NS(=O)(=O)N(C)C)c3)nc(=O)c2c(OC)c1OC` [Example 171, N,N-Dimethyl-N′-(3-{[methyl-(5,6,7-trimethoxy-4-oxo-1,4-dihydro-quinazolin-2-yl)-amino]-methyl}-phenyl)-sulfamide], the melting point lay within 176.5 to 179.7 °C.
In turn, `COc1cc2[nH]c(N(C)Cc3cccc(N4CCC(O)C4=O)c3)nc(=O)c2c(OC)c1OC` (stereo not shown) (as salt: HCl) [Example 22, 2-{[3-(3-Hydroxy-2-oxo-pyrrolidin-1-yl)-benzyl]-methyl-amino}-5,6,7-trimethoxy-1H-quinazolin-4-one] came in with a melting point of 172.9 to 175.9 °C.
Consider `COc1cc2[nH]c(N(C)Cc3cccc(C(C)N(C)C)c3)nc(=O)c2c(OC)c1OC` (stereo not shown) [Example 62, 2-{[3-(1-Dimethylamino-ethyl)-benzyl]-methyl-amino}-5,6,7-trimethoxy-1H-quinazolin-4-one], for which the melting point fell in the range of 122.6 to 125.5 °C.
For `COCC(=O)N(C)Cc1cccc(CN(C)c2nc(=O)c3c(OC)c(OC)c(OC)cc3[nH]2)c1` [Example 120, 2-Methoxy-N-methyl-N-(3-{[methyl-(5,6,7-trimethoxy-4-oxo-1,4-dihydro-quinazolin-2-yl)-amino]-methyl}-benzyl)-acetamide], the melting point was in the range of 115 to 117 °C.
Consider `COc1cc2nc(N(C)Cc3cccc(/N=C(\C)N(C)C)c3)[nH]c(=O)c2c(C)c1OC` (as salt: salt) [Example G-1, N′-(3-{[(6,7-Dimethoxy-5-methyl-4-oxo-1,4-dihydro-quinazolin-2-yl)-methyl-amino]-methyl}-phenyl)-N,N-dimethyl-acetamidine], for which the melting point lay in the range of 170.6 to 172.5 °C.
`COc1cc2[nH]c(N(C)Cc3cccc(N4CCC(OC)C4=O)c3)nc(=O)c2c(OC)c1OC` (stereo not shown) [Example 20, 5,6,7-Trimethoxy-2-{[3-(3-methoxy-2-oxo-prrolidin-1-yl)-benzyl]-methyl-amino}-1H-quinazolin-4-one]: the melting point lay in the range of 90.2 to 94.7 °C.
`COc1cc2[nH]c(N(C)Cc3cccc(O)c3)nc(=O)c2c(C)c1OC` [Example 154, 2-[(3-Hydroxy-benzyl)-methyl-amino]-6,7-dimethoxy-5-methyl-1H-quinazolin-4-one] gave a melting point of 252.9 to 254.35 °C.
In turn, `COc1cc2[nH]c(N(C)Cc3cccc(N4CCC(C)C4=O)c3)nc(=O)c2c(OC)c1OC` (stereo not shown) [Example 75, 5,6,7-Trimethoxy-2-{methyl-[3-(3-methyl-2-oxo-pyrrolidin-1-yl)-benzyl]-amino}-1H-quinazolin-4-one] displayed a melting point of 156.4 to 162 °C.
`COCCCOc1cccc(CN(C)c2nc(=O)c3c(C)c(OC)c(OC)cc3[nH]2)c1` [Example 162, 6,7-Dimethoxy-2-{[3-(3-methoxy-propoxy)-benzyl]-methyl-amino}-5-methyl-1H-quinazolin-4-one] came in with a melting point of 150.1 to 152 °C.
In turn, `COc1cc2[nH]c(N(C)Cc3cccc(C(C)N4CCC4)n3)nc(=O)c2c(OC)c1OC` (stereo not shown) [Example 278, 2-{[6-(1-Aztidin-1-yl-ethyl)-pyridin-2-ylmethyl]-methyl-amino}-5,6,7-trimethoxy-1H-quinazolin-4-one] yielded a melting point of 70.8 to 78.8 °C.
As to `C/N=C(/C)N(C)c1cccc(CN(C)c2nc(=O)c3c(C)c(OC)c(OC)cc3[nH]2)c1` [Example 194], the melting point lay within 181.2 to 186.6 °C.
